Our source for the mortality values is patent publication US20150196033A1, “PESTICIDAL COMPOSITIONS AND PROCESSES RELATED THERETO” (priority 2012, published 2015).

In assay [1] the test system is Beet Armyworm (BAW) (Spodoptera exigua). The assay can be described thus: Bioassay on Beet Armyworm (BAW), 128-well diet tray assay. In kind it is in vivo. The following applies: Spodoptera exigua, 168 h, second instar larvae, five to seven days; for mortality at 50 µg/cm2: 50 μg/cm2 on artificial diet, read-out: Rating BAW (% Control (or Mortality)). Here is the method:
(§1) Certain molecules disclosed in this document were tested against BAW and CEW using procedures described in the following examples. In the reporting of the results, the “BAW & CEW Rating Table” was used (See Table Section).
Bioassays on BAW (Spodoptera exigua)
(§2) Trays were covered with a clear self-adhesive cover and held at 25° C., 14:10 light-dark for five to seven days. Percent mortality was recorded for the larvae in each well; activity in the eight wells was then averaged. The results are indicated in the table entitled “Table ABC: Biological Results” (See Table Section).

In assay [2] the test system is Corn Earworm (CEW) (Helicoverpa zea). The assay is described as follows: Bioassay on Corn Earworm (CEW), 128-well diet tray assay. The format is in vivo. Particulars: Helicoverpa zea, 168 h, second instar larvae, five to seven days; for mortality at 0.5 µg/cm2: 0.5 μg/cm2 on artificial diet, read-out: Rating CEW (% Control (or Mortality)), *Tested at 0.5 μg/cm2; for mortality at 50 µg/cm2: 50 μg/cm2 on artificial diet, read-out: Rating CEW (% Control (or Mortality)). The protocol: as §1
Bioassays on CEW (Helicoverpa zea)
as §2

Each structure is given as a SMILES string.

`Cc1cc(C)c(N2/C(=N/C(=O)Nc3ccc(-c4ncn(-c5ccc(OC(F)(F)F)cc5)n4)cc3)SCC2C)c(C)c1` (centres unmarked) [Molecule A40]: the mortality at 12.5 µg/cm2 in assay [1] (12.5 μg/cm2 on artificial diet, read-out: Rating BAW (% Control (or Mortality)), **Tested at 12.5 μg/cm2) lay in the range of 50 to 100%; in assay [2] (12.5 μg/cm2 on artificial diet, read-out: Rating CEW (% Control (or Mortality)), **Tested at 12.5 μg/cm2), 50 to 100%.
For `Cc1cccc(Cl)c1N1C(=O)CS/C1=N\C(=O)Nc1ccc(-c2ncn(-c3ccc(OC(F)(F)F)cc3)n2)cc1` [Molecule A74], in assay [1], the mortality at 50 µg/cm2 lay in the range of 50 to 100%. Further, the mortality at 0.5 µg/cm2 in assay [2] lay within 50 to 100%.
Consider `COc1cc(C)c(N/C(S)=N/C(=O)Nc2ccc(-c3ncn(-c4ccc(OC(F)(F)F)cc4)n3)cc2)c(C)c1` [Molecule A50], for which the mortality at 50 µg/cm2 in assay [1] and in assay [2] was 50 to 100% throughout.
On to `COc1ccc(Cl)cc1N1C(=O)CS/C1=N\C(=O)Nc1ccc(-c2ncn(-c3ccc(OC(F)(F)F)cc3)n2)cc1` [Molecule A111], for which the mortality at 50 µg/cm2 in assay [1] was in the range of 50 to 100%. Also, the mortality at 0.5 µg/cm2 in assay [2] was 50 to 100%.
Take `Cc1cc(C)cc(N2C(=O)CS/C2=N\C(=O)Nc2ccc(-c3nnc(-c4ccc(OC(F)(F)F)cc4)o3)cc2)c1` [Molecule A104]: the mortality at 50 µg/cm2 in assay [1] was determined as 0%. Further, the mortality at 0.5 µg/cm2 in assay [2] fell in the range of 50 to 100%.
`Cc1cccc(C)c1N/C(S)=C/C(=O)Nc1ccc(-c2ncn(-c3ccc(OC(F)(F)F)cc3)n2)cc1` [Molecule A23, 3-((2,6-dimethylphenyl)amino)-3-thioxo-N-(4-(1-(4-(trifluoromethoxy)phenyl)-1H-1,2,4-triazol-3-yl)phenyl)propanamide]: the mortality at 50 µg/cm2 in assay [1] and in assay [2] was 50 to 100% in each case.
On to `CC(C)c1ccccc1N/C(S)=N/C(=O)Nc1ccc(-c2ncn(-c3ccc(OC(F)(F)F)cc3)n2)cc1` [Molecule A48], for which the mortality at 50 µg/cm2 in assay [1] and in assay [2] was 50 to 100% throughout.
Consider `CC(C)C(=O)OCS/C(=N/C(=O)Nc1ccc(-c2ncn(-c3ccc(OC(F)(F)F)cc3)n2)cc1)Nc1c(Cl)cccc1Cl` [Molecule A58], for which the mortality at 50 µg/cm2 in assay [1] and in assay [2] was 50 to 100% in each case.
As to `O=C(/N=C(\S)Nc1ccccc1C1CC1)Nc1ccc(-c2ncn(-c3ccc(OC(F)(F)F)cc3)n2)cc1` [Molecule A63], the mortality at 50 µg/cm2 in assay [1] was 50 to 100%. The mortality at 0.5 µg/cm2 in assay [2] was in the range of 50 to 100%.
Regarding `CC(C)C(=O)OCS/C(=N\C(=O)Nc1ccc(-c2ncn(-c3ccc(OC(F)(F)F)cc3)n2)cc1)Nc1ccccc1C(C)C` [Molecule A5, (Z)-((N-(2-Isopropylphenyl)-N′-((4-(1-(4-(trifluoromethoxy)phenyl)-1H-1,2,4-triazol-3-yl)phenyl)carbamoyl)carbamimidoyl)thio)methyl isobutyrate], the mortality at 50 µg/cm2 in assay [1] and in assay [2] was 50 to 100% each time.
Consider `Cc1cc(C)c(N2C(=O)C(C)S/C2=N\C(=O)Nc2ccc(-c3ncn(-c4ccc(OC(F)(F)F)cc4)n3)cc2)c(C)c1` (centres unmarked) [Molecule A37], for which the mortality at 50 µg/cm2 in assay [1] and in assay [2] was 50 to 100% in each case.
On to `Cc1c(F)cccc1N/C(S)=N/C(=O)Nc1ccc(-c2ncn(-c3ccc(OC(F)(F)F)cc3)n2)cc1` [Molecule A79], for which the mortality at 50 µg/cm2 in assay [1] is 50 to 100%. In addition, the mortality at 0.5 µg/cm2 in assay [2] was 50 to 100%.
Turning to `CC(C)c1ccccc1N/C(S)=C/C(=O)Nc1ccc(-c2ncn(-c3ccc(OC(F)(F)F)cc3)n2)cc1` [Molecule A21, 3-((2-isopropylphenyl)amino)-3-thioxo-N-(4-(1-(4-(trifluoromethoxy)phenyl)-1H-1,2,4-triazol-3-yl)phenyl)propanamide], the mortality at 50 µg/cm2 in assay [1] and in assay [2] was 50 to 100% throughout.
`Cc1ccc(F)c(N/C(S)=N/C(=O)Nc2ccc(-c3ncn(-c4ccc(OC(F)(F)F)cc4)n3)cc2)c1` [Molecule A89]: the mortality at 50 µg/cm2 in assay [1] lay in the range of 50 to 100%. In assay [2], the mortality at 0.5 µg/cm2 was 50 to 100%.
Consider `Cc1cc(C)c(-n2c(C)cs/c2=N\C(=O)Nc2ccc(-c3ncn(-c4ccc(OC(F)(F)F)cc4)n3)cc2)c(C)c1` [Molecule A43, (Z)-1-(3-mesityl-4-methylthiazol-2(3H)-ylidene)-3-(4-(1-(4-(trifluoromethoxy)phenyl)-1H-1,2,4-triazol-3-yl)phenyl)urea], for which the mortality at 50 µg/cm2 is 0% in assay [1] and 50 to 100% in assay [2].
As to `Cc1cc(C)c(N/C(=N\C(=O)Nc2ccc(-c3ncn(-c4ccc(OC(F)(F)F)cc4)n3)cc2)SCOC(=O)C(C)C)c(C)c1` [Molecule A59], the mortality at 50 µg/cm2 in assay [1] and in assay [2] was 50 to 100% throughout.
Turning to `Cc1cccc(Cl)c1N/C(S)=N/C(=O)Nc1ccc(-c2ncn(-c3ccc(OC(F)(F)F)cc3)n2)cc1` [Molecule A70], the mortality at 50 µg/cm2 in assay [1] was 50 to 100%. Moreover, the mortality at 0.5 µg/cm2 in assay [2] fell in the range of 50 to 100%.
For `Cc1ccc(Cl)cc1N/C(S)=N/C(=O)Nc1ccc(-c2ncn(-c3ccc(OC(F)(F)F)cc3)n2)cc1` [Molecule A72], in assay [1], the mortality at 50 µg/cm2 was 50 to 100%. The mortality at 0.5 µg/cm2 in assay [2] is 50 to 100%.
With `O=C(/N=C1\SCC(=O)N1c1ccc(Cl)cc1Cl)Nc1ccc(-c2ncn(-c3ccc(OC(F)(F)F)cc3)n2)cc1` [Molecule A92], the mortality at 50 µg/cm2 in assay [1] is 50 to 100%. Moreover, the mortality at 0.5 µg/cm2 in assay [2] was in the range of 50 to 100%.
Consider `CC(C)n1nccc1N1C(=O)CS/C1=N\C(=O)Nc1ccc(-c2ncn(-c3ccc(OC(F)(F)F)cc3)n2)cc1` [Molecule A121], for which the mortality at 50 µg/cm2 in assay [1] lay within 50 to 100%. Moreover, in assay [2], the mortality at 0.5 µg/cm2 fell in the range of 50 to 100%.
Turning to `CCC1CS/C(=N\C(=O)Nc2ccc(-c3ncn(-c4ccc(OC(F)(F)F)cc4)n3)cc2)N1c1c(C)cc(C)cc1C` (centres unmarked) [Molecule A38], the mortality at 50 µg/cm2 in assay [1] and in assay [2] was 50 to 100% throughout.
Take `CC(C)c1ccccc1N/C(S)=N/C(=O)Nc1ccc(-c2nnc(-c3ccc(OC(F)(F)C(F)(F)F)cc3)o2)cc1` [Molecule A96]: the mortality at 50 µg/cm2 in assay [1] was 50 to 100%; in assay [2], 0%.
On to `CC(C)c1ccccc1N1C(=O)CS/C1=C\C(=O)Nc1ccc(-c2ncn(-c3ccc(OC(F)(F)F)cc3)n2)cc1` [Molecule A24, (Z)-2-(3-(2-isopropylphenyl)-4-oxothiazolidin-2-ylidene)-N-(4-(1-(4-(trifluoromethoxy)phenyl)-1H-1,2,4-triazol-3-yl)phenyl)acetamide], for which the mortality at 50 µg/cm2 in assay [1] and in assay [2] was 50 to 100% each time.
As for `CC(C)c1ccccc1N1C(=O)CS/C1=N\C(=O)Nc1ccc(-c2ncn(-c3ccc(OC(F)(F)C(F)(F)F)cc3)n2)cc1` [Molecule A115], the mortality at 50 µg/cm2 in assay [1] fell in the range of 50 to 100%. In assay [2], the mortality at 0.5 µg/cm2 lay in the range of 50 to 100%.
As for `CC(C)c1c(F)cccc1N1C(=O)CS/C1=N\C(=O)Nc1ccc(-c2ncn(-c3ccc(OC(F)(F)F)cc3)n2)cc1` [Molecule A109], in assay [1], the mortality at 50 µg/cm2 was in the range of 50 to 100%. Further, the mortality at 0.5 µg/cm2 in assay [2] lay within 50 to 100%.
Turning to `Cc1cc(C)cc(N/C(S)=N/C(=O)Nc2ccc(-c3ncn(-c4ccc(OC(F)(F)F)cc4)n3)cc2)c1` [Molecule A100], in assay [1], the mortality at 50 µg/cm2 lay in the range of 50 to 100%. In addition, the mortality at 0.5 µg/cm2 in assay [2] is 50 to 100%.
Regarding `CC(C)c1ccccc1NC(=O)NC(=O)Nc1ccc(-c2ncn(-c3ccc(OC(F)(F)F)cc3)n2)cc1` [Molecule A13, 1-(2-isopropylphenyl)-3-[[4-[1-[4-(trifluoromethoxy)phenyl]-1,2,4-triazol-3-yl]phenyl]carbamoyl]urea], the mortality at 50 µg/cm2 in assay [1] and in assay [2] was 50 to 100% throughout.
For the molecule `CC(C)c1cccc(N/C(S)=N/C(=O)Nc2ccc(-c3ncn(-c4ccc(OC(F)(F)F)cc4)n3)cc2)c1` [Molecule A118], the mortality at 50 µg/cm2 in assay [1] and in assay [2] was 0% each time.
Consider `Cc1ccc(N2C(=O)CS/C2=N\C(=O)Nc2ccc(-c3ncn(-c4ccc(OC(F)(F)F)cc4)n3)cc2)c(C(C)C)c1` [Molecule A88], for which, in assay [1], the mortality at 50 µg/cm2 lay within 50 to 100%. Besides, in assay [2], the mortality at 0.5 µg/cm2 lay within 50 to 100%.
As to `N#C/C(C(=O)Nc1ccc(-c2ncn(-c3ccc(OC(F)(F)F)cc3)n2)cc1)=C(/S)Nc1c(F)cccc1F` [Molecule A30, (Z)-2-Cyano-3-((2,6-difluorophenyl)amino)-3-mercapto-N-(4-(1-(4-(trifluoromethoxy)phenyl)-1H-1,2,4-triazol-3-yl)phenyl)acrylamide], the mortality at 50 µg/cm2 in assay [1] and in assay [2] was 0% in each case.
With `CC(C)c1cc(F)ccc1N1C(=O)CS/C1=N\C(=O)Nc1ccc(-c2ncn(-c3ccc(OC(F)(F)F)cc3)n2)cc1` [Molecule A117], in assay [1], the mortality at 50 µg/cm2 fell in the range of 50 to 100%. Also, the mortality at 0.5 µg/cm2 in assay [2] was 50 to 100%.
As for `CC(C)c1ccc(F)cc1N/C(S)=N/C(=O)Nc1ccc(-c2ncn(-c3ccc(OC(F)(F)F)cc3)n2)cc1` [Molecule A82], the mortality at 50 µg/cm2 in assay [1] is 50 to 100%. Moreover, the mortality at 0.5 µg/cm2 in assay [2] was 50 to 100%.
For `N#C/C(C(=O)Nc1ccc(-c2ncn(-c3ccc(OC(F)(F)F)cc3)n2)cc1)=C(/S)Nc1ccccc1-c1ccccc1` [Molecule A27, (Z)-3-([1,1′-Biphenyl]-2-ylamino)-2-cyano-3-mercapto-N-(4-(1-(4-(trifluoromethoxy)phenyl)-1H-1,2,4-triazol-3-yl)phenyl)acrylamide], the mortality at 50 µg/cm2 is 0% in assay [1] and 0 to 50% in assay [2].
As to `CC(C)n1nccc1N/C(S)=N/C(=O)Nc1ccc(-c2ncn(-c3ccc(OC(F)(F)F)cc3)n2)cc1` [Molecule A119], in assay [1], the mortality at 50 µg/cm2 fell in the range of 50 to 100%. The mortality at 0.5 µg/cm2 in assay [2] is 0 to 50%.
